From US20100261711A1, “SELECTIVE ANTICONVULSANT AGENTS AND THEIR USES” (WiSys Technology Foundation, priority 2009, published 2010)
Where two headings read alike, the source gives them in different places.

Assays:
[1] = molecular target: T1, GABAA/α1 (α1β3γ2 GABAA receptors) (Homo sapiens, UniProt P14867+P18507); assay: Competitive binding assay, [3H]flunitrazepam; conditions: Binding Affinity at GABAA/α1, αxβ3γ2, [3H]flunitrazepam competition
T1 construct: expressed in transfected cells
Procedure, shortened: (§1)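 Bound ligand was collected on 0.3% polyethyleneimine-pretreated GF/C filters with three ice-cold washes and quantified by liquid scintillation counting; membrane protein was determined against a BSA standard.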

[2] = molecular target: T2, GABAA/α2 (α2β3γ2 GABAA receptors) (Homo sapiens, UniProt P18507+P47869); assay: Competitive binding assay, [3H]flunitrazepam; conditions: Binding Affinity at GABAA/α2, αxβ3γ2, [3H]flunitrazepam competition
T2 construct: expressed in transfected cells
Procedure, shortened: as §1

[3] = molecular target: T3, GABAA/α5 (α5β3γ2 GABAA receptors) (Homo sapiens, UniProt P18507+P31644); assay: Competitive binding assay, [3H]flunitrazepam; conditions: Binding Affinity at GABAA/α5, αxβ3γ2, [3H]flunitrazepam competition
T3 construct: expressed in transfected cells
Procedure, shortened: as §1

MES-induced seizures [4] = assay: Maximal electroshock test (MES), mice; assay type: in vivo
[5] = tested on: Metrazol-induced clonic seizures; assay: Subcutaneous Metrazol test (scMet), mice; assay type: in vivo
[6] = tested on: minimal muscular or neurological impairment; assay: Toxicity (TOX), rotorod procedure, mice; assay type: in vivo
MES-induced seizures [7] = assay: Maximal electroshock test (MES), rats; assay type: in vivo; conditions: Rat PO
Description: The benzodiazepine derivative compounds selective for GABAa receptor subunits were tested for the ability to suppress seizures in several standard rat and mouse models of epilepsy. […] The standard models incorporated into anticonvulsant screening include the maximal electroshock test (MES), the subcutaneous Metrazol test (scMet), and evaluations of toxicity (TOX). The data for each condition is presented as a ratio of either the number of animals protected or toxic (loss of locomotor activity) over the number of animals tested at a given time point and dose.
The MES is a model for generalized tonic-clonic seizures and provides an indication of a compound's ability to prevent seizure spread when all neuronal circuits in the brain are maximally active. These seizures are highly reproducible and are electrophysiologically consistent with human seizures. For all tests based on MES convulsions, 60 Hz of alternating current (50 mA in mice, 150 in rats) is delivered for by corneal electrodes which have been primed with an electrolyte solution containing an anesthetic agent (0.5% tetracaine HCL). For Test 1, mice are tested at various intervals following doses of 30, 100 and 300 mg/kg of test compound given by ip injection of a volume of 0.01 mL/g. In Test 2, rats are tested after a dose of 30 mg/kg (po) in a volume of 0.04 mL/g. Test 8 uses varying doses administered via i.p. injection, again in a volume of 0.04 ml/g. […] In Antiepileptic Drugs, Levy, R. H. M., Meldrum, B. S., Eds.; Raven Press: New York, pp 99-110, 1995b.).

[8] = tested on: minimal motor deficit (ataxia, abnormal gait); assay: Toxicity (TOX), minimal motor deficit, rats; assay type: in vivo; conditions: for Tox, animals toxic/tested: 50 mg/kg; for TOX (Rotorod Test), animals toxic/tested: Rat IP, 100 mg/kg
6 Hz psychomotor seizure = assay: Minimal clonic seizure (6 Hz) test; assay type: in vivo; conditions: Mice IP; for ED50: Mus musculus, ip; for 6 Hz, animals protected/tested: 100 m/k
Procedure, shortened: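 Mice dosed ip with test compound before 6 Hz corneal-type electrical stimulation lasting 3 s. Protection scored as absence of minimal clonic phase and stereotyped automatistic behaviour seen in untreated animals.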

[9] = Mice, 50 mg/kg PO (Mice IP), 0.5 hr
[10] = Mice, 50 mg/kg PO (Mice IP), 4.0 hr

SMILES: C#Cc1ccc2c(c1)C(c1ccccc1)=N[C@H](C)c1nnc(C)n1-2 [SH-TR-CH3 (146), (4R)-8-Ethynyl-1,4-dimethyl-6-phenyl-4H-benzo[f][1,2,4]triazolo[4,3-a][1,4]diazepine]
- Ki [1]: 7.37 µM
- Ki [2]: 1.53 µM
- Ki [3]: 1.95 µM
- MES, animals protected/tested (MES-induced seizures [4]; Mice IP, 30 mg/kg, 0.5 Hr): 0/1
- MES, animals protected/tested (MES-induced seizures [4]; Mice IP, 30 mg/kg, 4.0 Hr): 0/1
- MES, animals protected/tested (MES-induced seizures [4]; Mice IP, 100 mg/kg, 0.5 hr): 0/3
- MES, animals protected/tested (MES-induced seizures [4]; Mice IP, 100 mg/kg, 4.0 hr): 0/3
- MES, animals protected/tested (MES-induced seizures [4]; Mice IP, 300 mg/kg, 0.5 Hr): 0/1
- MES, animals protected/tested (MES-induced seizures [4]; Mice IP, 300 mg/kg, 4.0 Hr): 0/1
- scMet, animals protected/tested ([5]; Mice IP, 30 mg/kg, 0.5 Hr): 0/1
- scMet, animals protected/tested ([5]; Mice IP, 30 mg/kg, 4.0 Hr): 0/1
- scMet, animals protected/tested ([5]; Mice IP, 100 mg/kg, 0.5 hr): 0/1
- scMet, animals protected/tested ([5]; Mice IP, 100 mg/kg, 4.0 hr): 0/1
- scMet, animals protected/tested ([5]; Mice IP, 300 mg/kg, 0.5 Hr): 1/1
- scMet, animals protected/tested ([5]; Mice IP, 300 mg/kg, 4.0 Hr): 0/1
- TOX (Rotorod Test), animals toxic/tested ([6]; Mice IP, 30 mg/kg, 0.5 Hr): 0/4
- TOX (Rotorod Test), animals toxic/tested ([6]; Mice IP, 30 mg/kg, 4.0 Hr): 0/2
- TOX (Rotorod Test), animals toxic/tested ([6]; Mice IP, 100 mg/kg, 0.5 hr): 1/8
- TOX (Rotorod Test), animals toxic/tested ([6]; Mice IP, 100 mg/kg, 4.0 hr): 0/4
- TOX (Rotorod Test), animals toxic/tested ([6]; Mice IP, 300 mg/kg, 0.5 Hr): 1/4
- TOX (Rotorod Test), animals toxic/tested ([6]; Mice IP, 300 mg/kg, 4.0 Hr): 0/2
- MES, animals protected/tested (MES-induced seizures [7]; 50 mg/kg, 0.5 h): 0/4
- MES, animals protected/tested (MES-induced seizures [7]; 50 mg/kg, 1.0 h): 0/4
- MES, animals protected/tested (MES-induced seizures [7]; 50 mg/kg, 2.0 h): 0/4
- MES, animals protected/tested (MES-induced seizures [7]; 50 mg/kg, 4.0 h): 0/4
- MES, animals protected/tested (MES-induced seizures [7]; 50 mg/kg, […]): 0/4
- Tox, animals toxic/tested ([8]; Rat PO, 0.5 h): 0/4
- Tox, animals toxic/tested ([8]; Rat PO, 1.0 h): 1/4
- Tox, animals toxic/tested ([8]; Rat PO, 2.0 h): 1/4
- Tox, animals toxic/tested ([8]; Rat PO, 4.0 h): 0/4
- Tox, animals toxic/tested ([8]; Rat PO, […]): 0/4
- 6 Hz Time to Peak Effect, protected/tested (6 Hz psychomotor seizure; 7 mg/kg, 32 mA, 0.25 Hr): 4/4
- 6 Hz Time to Peak Effect, protected/tested (6 Hz psychomotor seizure; 7 mg/kg, 32 mA, 0.5 Hr): 4/4
- 6 Hz Time to Peak Effect, protected/tested (6 Hz psychomotor seizure; 7 mg/kg, 32 mA, 1.0 Hr): 2/4
- 6 Hz Time to Peak Effect, protected/tested (6 Hz psychomotor seizure; 15 mg/kg, 32 mA, 0.25 Hr): 4/4
- 6 Hz Time to Peak Effect, protected/tested (6 Hz psychomotor seizure; 15 mg/kg, 32 mA, 0.5 Hr): 4/4^14
- 6 Hz Time to Peak Effect, protected/tested (6 Hz psychomotor seizure; 15 mg/kg, 32 mA, 1.0 Hr): 4/4^14
- 6 Hz Time to Peak Effect, protected/tested (6 Hz psychomotor seizure; 15 mg/kg, 32 mA, 2.0 Hr): 2/4
- 6 Hz Time to Peak Effect, protected/tested (6 Hz psychomotor seizure; 15 mg/kg, 32 mA, 4.0 Hr): 1/4
- 6 Hz Time to Peak Effect, protected/tested (6 Hz psychomotor seizure; 50 mg/kg, 32 mA, 0.25 Hr): 4/4^14
- 6 Hz Time to Peak Effect, protected/tested (6 Hz psychomotor seizure; 50 mg/kg, 32 mA, 0.5 Hr): 4/4^14
- 6 Hz Time to Peak Effect, protected/tested (6 Hz psychomotor seizure; 100 mg/kg, 32 mA, 0.25 Hr): 4/4^14
- 6 Hz Time to Peak Effect, protected/tested (6 Hz psychomotor seizure; 100 mg/kg, 32 mA, 0.5 Hr): 4/4^14
- 6 Hz Time to Peak Effect, protected/tested (6 Hz psychomotor seizure; 100 mg/kg, 32 mA, 1.0 Hr): 4/4^14
- 6 Hz Time to Peak Effect, protected/tested (6 Hz psychomotor seizure; 100 mg/kg, 32 mA, 2.0 Hr): 4/4^14
- 6 Hz Time to Peak Effect, protected/tested (6 Hz psychomotor seizure; 100 mg/kg, 32 mA, 4.0 Hr): 4/4^14
- 6 Hz ED50 Biological Response, protected/tested (6 Hz psychomotor seizure; 32 mA, 0.25 Hr, 1.75 mg/kg): 4/8
- 6 Hz ED50 Biological Response, protected/tested (6 Hz psychomotor seizure; 32 mA, 0.25 Hr, 7 mg/kg): 8/8
- 6 Hz ED50 Biological Response, protected/tested (6 Hz psychomotor seizure; 44 mA, 0.25 Hr, 5 mg/kg): 5/8
- 6 Hz ED50 Biological Response, protected/tested (6 Hz psychomotor seizure; 44 mA, 0.25 Hr, 10 mg/kg): 8/8
- ED50 (6 Hz psychomotor seizure; […], 32 mA, 0.25 Hr, read-out: ED50 (6 Hz)): 2.08 mg/kg
- ED50 (6 Hz psychomotor seizure; […], 44 mA, 0.25 Hr, read-out: ED50 (6 Hz)): 4.55 mg/kg

SMILES: C#Cc1ccc2c(c1)C(c1ccccn1)=NCc1c(C(=O)OCC)ncn1-2 [Hz166 (106), 8-Acetylenyl-6-pyridin-2-yl-4H-benzo[f]imidazo[1,5-a][1,4]diazepine-3-carboxylic acid ethyl ester]
- MES, animals protected/tested (MES-induced seizures [4]; Mice IP, 100 mg/kg, 0.5 hr): 0/3
- MES, animals protected/tested (MES-induced seizures [4]; Mice IP, 100 mg/kg, 4.0 hr): 0/3
- MES, animals protected/tested (MES-induced seizures [4]; [9]): 1/4
- MES, animals protected/tested (MES-induced seizures [4]; [10]): 0/4
- ED50 (MES-induced seizures [4]; Mus musculus, Mice IP): > 300 mg/kg
- mice protected against scMet induced seizures ([5]; Mice IP, 100 mg/kg, 0.5 hr): 60%
- scMet, animals protected/tested ([5]; Mice IP, 100 mg/kg, 0.5 hr): 3/5
- scMet, animals protected/tested ([5]; Mice IP, 100 mg/kg, 4.0 hr): 0/1
- scMet, animals protected/tested [5, 9]: 4/4
- scMet, animals protected/tested [5, 10]: 0/4
- ED50 ([5]; Mus musculus, Mice IP): 16.3 mg/kg
- TOX (Rotorod Test), animals toxic/tested ([6]; Mice IP, 100 mg/kg, 0.5 hr): 0/8
- TOX (Rotorod Test), animals toxic/tested ([6]; Mice IP, 100 mg/kg, 4.0 hr): 0/4
- TD50 TOX ([6]; Mice IP, rotorod): > 500 mg/kg
- TOX (Rotorod Test), animals toxic/tested [6, 9]: 0/4
- TOX (Rotorod Test), animals toxic/tested [6, 10]: 0/4
- ED50 (MES-induced seizures [7]): > 250 mg/kg
- MES, animals protected/tested (MES-induced seizures [7]; 30 mg/kg, 0.5 h): 1/4
- MES, animals protected/tested (MES-induced seizures [7]; 30 mg/kg, 1.0 h): 0/4
- MES, animals protected/tested (MES-induced seizures [7]; 30 mg/kg, 2.0 h): 0/4
- MES, animals protected/tested (MES-induced seizures [7]; 30 mg/kg, 4.0 h): 0/4
- MES, animals protected/tested (MES-induced seizures [7]; 30 mg/kg, […]): 0/4
- TOX (Rotorod Test), animals toxic/tested ([8]; 0.5 hr): 0/8
- TOX (Rotorod Test), animals toxic/tested ([8]; 4.0 hr): 0/8
- Tox, animals toxic/tested ([8]; Rat PO, 0.5 h): 0/4
- Tox, animals toxic/tested ([8]; Rat PO, 1.0 h): 0/4
- Tox, animals toxic/tested ([8]; Rat PO, 2.0 h): 0/4
- Tox, animals toxic/tested ([8]; Rat PO, 4.0 h): 0/4
- Tox, animals toxic/tested ([8]; Rat PO, […]): 0/4
- TD50 TOX ([8]; Rat PO, abnormal gait): >500 mg/kg
- motor impairment / sedative or locomotor effects ([8]; rats, oral administration, up to 500 mg/kg): No motor impairment
- 6 Hz, animals protected/tested (6 Hz psychomotor seizure; 44 mA, 0.5 hr): 1/4
- 6 Hz, animals protected/tested (6 Hz psychomotor seizure; 44 mA, 1.0 hr): 1/4
- 6 Hz, animals protected/tested (6 Hz psychomotor seizure; 44 mA, 2.0 hr): 0/4
- 6 Hz, animals protected/tested (6 Hz psychomotor seizure; 44 mA, 4 hr): 0/4
- 6 Hz, animals protected/tested (6 Hz psychomotor seizure; 44 mA, […]): 4/4
- ED50 (6 Hz psychomotor seizure; 32 mA, read-out: ED50 32 mA (6 Hz test)): 25.8 mg/kg
- ED50 (6 Hz psychomotor seizure; 44 mA, read-out: ED50 44 mA (6 Hz test)): 115 mg/kg
